Measurements taken from PubChem BioAssay (NCI).
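At the GI50, growth is halved. TGI: total growth inhibition.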

Experiments:
Experiment in all cases: DTP human tumour cell line panel, 384-well format
[1] = system: K-562 leukemia
[2] = system: IGROV1 ovarian
[3] = system: HCT-116 colon
[4] = system: OVCAR-5 ovarian
[5] = system: NCI-H460 NSCLC
[6] = system: LOX IMVI melanoma
[7] = system: HOP-92 NSCLC
[8] = system: MOLT-4 leukemia
[9] = system: NCI-H226 lung
[10] = system: OVCAR-8 ovarian
[11] = system: A498 renal
[12] = system: CAKI-1 renal
[13] = system: DU-145 prostate
[14] = system: SK-MEL-28 melanoma
[15] = system: NCI-H23 lung
[16] = system: MDA-MB-231 breast
[17] = system: HCC-2998 colon
[18] = system: UACC-62 melanoma
[19] = system: MDA-MB-435 melanoma
[20] = system: UO-31 renal
[21] = system: U251 glioblastoma
[22] = system: HT29 colon
[23] = system: SK-MEL-5 melanoma
[24] = system: NCI/ADR-RES ovarian
[25] = system: SN12C renal
[26] = system: NCI-H522 lung
[27] = system: SF-268 CNS
[28] = system: SF-295 CNS
[29] = system: SR leukemia
[30] = system: SNB-19 CNS
[31] = system: HL-60(TB) leukemia
[32] = system: M14 melanoma
[33] = system: T-47D breast
[34] = system: OVCAR-4 ovarian
[35] = system: KM12 colon
[36] = system: SW-620 colon
[37] = system: A549 NSCLC
[38] = system: OVCAR-3 ovarian
[39] = system: TK-10 renal
[40] = system: SK-OV-3 ovarian
[41] = system: HCT-15 colon
[42] = system: SK-MEL-2 melanoma
[43] = system: ACHN renal
[44] = system: MDA-MB-468 breast
[45] = system: RPMI-8226 leukemia
[46] = system: SF-539 CNS
[47] = system: PC-3 prostate
[48] = system: NCI-H322M lung
[49] = system: BT-549 breast
[50] = system: CCRF-CEM leukemia
[51] = system: 786-0 renal
[52] = system: MALME-3M melanoma
[53] = system: UACC-257 melanoma
[54] = system: RXF 393 renal
[55] = system: HOP-62 NSCLC
[56] = system: MCF7 breast
[57] = system: COLO 205 colon

## Cc1cc(NC(=O)c2ccc(NS(=O)(=O)CCO)cc2N2CCC3(CC2)CC3)nc(N2CCC(F)(F)CC2)n1
[1]
  GI50: 1570 nM
  TGI: 3040 nM
[2]
  GI50: 1940 nM
  TGI: 4960 nM
[3]
  GI50: 1440 nM
  TGI: 2850 nM
[4]
  GI50: 2010 nM
  TGI: 4700 nM
[5]
  GI50: 298 nM
  TGI: 1050 nM
[6]
  GI50: 2120 nM
  TGI: 3580 nM
[7]
  GI50: 1890 nM
  TGI: 3410 nM
[8]
  GI50: 1760 nM
  TGI: 3180 nM
[9]
  GI50: 1570 nM
  TGI: 3130 nM
[10]
  GI50: 71.6 nM
  TGI: 2610 nM
[11]
  GI50: 484 nM
  TGI: 2350 nM
[12]
  GI50: 1890 nM
  TGI: 6280 nM
[13]
  GI50: 56.3 nM
  TGI: 2700 nM
[14]
  GI50: 792 nM
  TGI: 5840 nM
[15]
  GI50: 1310 nM
  TGI: 2670 nM
[16]
  GI50: 74.3 nM
  TGI: 2480 nM
[17]
  GI50: 72.5 nM
  TGI: 402 nM
[18]
  GI50: 1590 nM
  TGI: 3490 nM
[19]
  GI50: 686 nM
  TGI: 5300 nM
[20]
  GI50: 1250 nM
  TGI: 2890 nM
[21]
  GI50: 60.8 nM
  TGI: 479 nM
[22]
  GI50: 31.7 nM
  TGI: 152 nM
[23]
  GI50: 1680 nM
  TGI: 3070 nM
[24]
  GI50: 101 nM
  TGI: 703 nM
[25]
  GI50: 1850 nM
  TGI: 3530 nM
[26]
  GI50: 1860 nM
  TGI: 4330 nM
[27]
  GI50: 1420 nM
  TGI: 3310 nM
[28]
  GI50: 373 nM
  TGI: 1140 nM
[29]
  GI50: 22.1 nM
  TGI: 135 nM
[30]
  GI50: 1440 nM
  TGI: 3110 nM
[31]
  GI50: 2200 nM
  TGI: 3670 nM
[32]
  GI50: 328 nM
  TGI: 1250 nM
[33]
  GI50: 694 nM
  TGI: 14100 nM
[34]
  GI50: 258 nM
  TGI: 1300 nM
[35]
  GI50: 694 nM
  TGI: 2180 nM
[36]
  GI50: 1650 nM
  TGI: 3140 nM
[37]
  GI50: 2530 nM
  TGI: 6670 nM
[38]
  TGI: 23.5 nM
[39]
  GI50: 2160 nM
  TGI: 4760 nM
[40]
  GI50: 89.5 nM
  TGI: 5810 nM
[41]
  GI50: 1660 nM
  TGI: 3060 nM
[42]
  GI50: 89.9 nM
  TGI: 2910 nM
[43]
  GI50: 2020 nM
  TGI: 4940 nM
[44]
  GI50: 35.2 nM
  TGI: 648 nM
[45]
  GI50: 1590 nM
  TGI: 2950 nM
[46]
  GI50: 53.7 nM
  TGI: 391 nM
[47]
  GI50: 1850 nM
  TGI: 3390 nM
[48]
  GI50: 564 nM
  TGI: 3370 nM
[49]
  GI50: 24.6 nM
  TGI: 1260 nM
[50]
  GI50: 1720 nM
  TGI: 3120 nM
[51]
  GI50: 1630 nM
  TGI: 3070 nM
[52]
  GI50: 614 nM
  TGI: 3420 nM
[53]
  GI50: 390 nM
  TGI: 1960 nM
[54]
  GI50: 13.5 nM
  TGI: 66.6 nM
[55]
  GI50: 1940 nM
  TGI: 3650 nM
[56]
  GI50: 2090 nM
  TGI: 4910 nM
[57]
  GI50: 1660 nM
  TGI: 3280 nM
